These results are taken from US20250170112A1, “ADENOSINE LIGANDS FOR THE TREATMENT OF NEUROLOGICAL DISORDERS” (Lucy Therapeutics, Inc., priority 2022, published 2025).

pEC50: −log10 of the molar value.

For assay [1], the target named is T1, human Adenosine A1 receptor (Homo sapiens, UniProt P30542).
T1 construct: host or cells: CHO-K1
T1 sequence (P30542 1-326): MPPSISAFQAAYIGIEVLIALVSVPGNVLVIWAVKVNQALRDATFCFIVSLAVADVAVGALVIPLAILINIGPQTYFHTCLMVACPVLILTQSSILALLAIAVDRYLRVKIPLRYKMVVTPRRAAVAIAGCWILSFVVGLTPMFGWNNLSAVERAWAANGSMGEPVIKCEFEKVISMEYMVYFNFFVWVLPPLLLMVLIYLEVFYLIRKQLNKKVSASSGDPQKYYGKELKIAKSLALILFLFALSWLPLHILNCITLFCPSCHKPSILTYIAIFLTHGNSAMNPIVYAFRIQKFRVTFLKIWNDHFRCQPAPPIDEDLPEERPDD
The experiment in a line: GTPγS scintillation proximity assay, agonist testing. Type of assay: biochemical. Particulars: agonist activity; membrane extracts of CHO-K1 cells expressing recombinant human A1; read-out: A1AR EC50. In short, it runs like this: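 Agonist-stimulated [35S]GTPγS binding to membranes of CHO-K1 cells expressing recombinant human A1 receptor, in 20 mM HEPES pH 7.4, 100 mM NaCl, 10 μg/mL saponin, with receptor-optimized MgCl2 and GDP. GTPγ[35S] 0.1 nM final with WGA SPA beads; 1 h at room temperature, then scintillation counting.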
Background: Scintillation proximity formats need no separation of bound from free tracer.

The target in the next assay is T2, human A2B (Homo sapiens, UniProt P29275).
T2 construct: expressed in transfected cells; host or cells: HEK293
T2 sequence (P29275 1-332): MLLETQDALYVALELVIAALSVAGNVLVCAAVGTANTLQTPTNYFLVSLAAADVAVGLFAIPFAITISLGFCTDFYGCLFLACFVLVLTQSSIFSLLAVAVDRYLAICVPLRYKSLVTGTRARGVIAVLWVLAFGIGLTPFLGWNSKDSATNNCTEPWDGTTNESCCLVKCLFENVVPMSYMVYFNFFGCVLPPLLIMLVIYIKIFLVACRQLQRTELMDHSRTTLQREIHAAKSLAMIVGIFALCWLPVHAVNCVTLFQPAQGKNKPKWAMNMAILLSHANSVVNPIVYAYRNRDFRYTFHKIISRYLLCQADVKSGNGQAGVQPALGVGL
The experiment in a line: cAMP HTRF assay for Gs coupled receptor, agonist test. Type of assay: cell-based. The following applies: agonist activity; HEK293 cells expressing recombinant human A2B; read-out: A2BAR EC50. The essentials:
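Recombinant cells were incubated 30 min at room temperature with increasing agonist concentrations. Lysis buffer with cAMP-d2 and anti-cAMP cryptate was added, with 1 h at room temperature before the HTRF fluorescence ratio was read. Reference compounds were run in parallel.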

One may read the pEC50 as the negative decadic logarithm of the EC50, by convention in mol/L. For the compound `COCCOc1ccc(-c2c(C#N)c(N)nc(S[C@@H](C)c3cccnc3)c2C#N)cc1` [Compound 247], the pEC50 was 8.92 in assay [1] and below 5.00 on human A2B.

Consider `COCCOc1ccc(-c2c(C#N)c(N)nc(S[C@H](C)c3cccnc3)c2C#N)cc1` [Compound 248], for which the results for the negative logarithm of the EC50 (pEC50) (in assay [1]; at human A2B) were 6.56 and below 5.00, respectively.

As for `COCCOc1ccc(-c2c(C#N)c(SCc3cncnc3)nc(N3CC(F)C3)c2C#N)cc1` [Compound 249], the pEC50 (in assay [1]; at human A2B) was below 5.00 in each case.

On to `COCCOc1ccc(-c2c(C#N)c(SCc3ccccn3)nc(N3CC(F)C3)c2C#N)cc1` [Compound 250], for which the pEC50 in assay [1] is 7.48; on human A2B, below 5.00.

As to `COCCOc1ccc(-c2c(C#N)c(SCc3ncccn3)nc(N3CC(F)C3)c2C#N)cc1` [Compound 251], the pEC50 (in assay [1]; at human A2B) was below 5.00 in each case.

On to `COCCOc1ccc(-c2c(C#N)c(SCc3cnccn3)nc(N3CC(F)C3)c2C#N)cc1` [Compound 252], for which the pEC50 (in assay [1]; at human A2B) was below 5.00 in each case.

On to `CN(C)c1nc(SCc2cccnc2)c(C#N)c(-c2ccc(OCCOC(F)F)cc2)c1C#N` [Compound 253], for which the pEC50 (in assay [1]; on human A2B) was below 5.00 each time.

As to `CN(C)c1nc(SCc2cccnc2)c(C#N)c(-c2ccc(OC(F)(F)CO)cc2)c1C#N` [Compound 254], the pEC50 (in assay [1]; at human A2B) was below 5.00 throughout.

Turning to `N#Cc1c(SCc2cccnc2)nc(N2CC(F)C2)c(C#N)c1-c1ccc(OC(F)(F)CO)cc1` [Compound 255], the pEC50 was below 5.00 in assay [1] and 6.36 on human A2B.

In the case of `N#Cc1c(SCc2cccnc2)nc(N2CC(F)(F)C2)c(C#N)c1-c1ccc(OC(F)(F)CO)cc1` [Compound 256], the negative logarithm of the EC50 (pEC50) (in assay [1]; on human A2B) was below 5.00 throughout.

`N#Cc1c(SCc2cccnc2)nc(N2CCCC2)c(C#N)c1-c1ccc(OCCOC(F)F)cc1` [Compound 257]: the pEC50 (in assay [1]; on human A2B) was below 5.00 in each case.

`CNc1nc(SCc2cccnc2)c(C#N)c(-c2ccc(OCCOC(F)F)cc2)c1C#N` [Compound 258]: the pEC50 (in assay [1]; at human A2B) was below 5.00 in each case.

As for `N#Cc1c(SCc2cccnc2)nc(N2CCC2)c(C#N)c1-c1ccc(OC(F)(F)CO)cc1` [Compound 259, 2-(Azetidin-1-yl)-4-(4-(1,1-difluoro-2-hydroxyethoxy)phenyl)-6-((pyridin-3-ylmethyl)thio)pyridine-3,5-dicarbonitrile], the pEC50 in assay [1] was below 5.00; on human A2B, 6.70.

In the case of `CNc1nc(SCc2cccnc2)c(C#N)c(-c2ccc(OC(F)(F)CO)cc2)c1C#N` [Compound 260], the pEC50 in assay [1] was 8.47; at human A2B, 7.47.

Turning to `N#Cc1c(SCc2cccnc2)nc(N2CC(O)C2)c(C#N)c1-c1ccc(OC(F)(F)CO)cc1` [Compound 261], the pEC50 (in assay [1]; at human A2B) was below 5.00 throughout.

`N#Cc1c(SCc2cccnc2)nc(N2CCC2)c(C#N)c1-c1ccc(OCCOC(F)F)cc1` [Compound 262]: the pEC50 (in assay [1]; at human A2B) was below 5.00 each time.

In the case of `N#Cc1c(SCc2cccnc2)nc(N2CCCC2)c(C#N)c1-c1ccc(OC(F)(F)CO)cc1` [Compound 263], the pEC50 (in assay [1]; on human A2B) was below 5.00 in each case.

On to `N#Cc1c(SCc2cccnc2)nc(N2CC(F)(F)C2)c(C#N)c1-c1ccc(OCCOC(F)F)cc1` [Compound 264], for which the pEC50 (in assay [1]; on human A2B) was below 5.00 in each case.

With `N#Cc1c(SCc2cccnc2)nc(N2CC(O)C2)c(C#N)c1-c1ccc(OCCOC(F)F)cc1` [Compound 265], the negative-log EC50 (pEC50) is 7.90 in assay [1] and below 5.00 on human A2B.

Consider `N#Cc1c(SCc2cccnc2)nc(N2CC(F)C2)c(C#N)c1-c1ccc(OCCOC(F)F)cc1` [Compound 266], for which the pEC50 in assay [1] is 5.97; on human A2B, below 5.00.

For the compound `COCCOc1ccc(-c2c(C#N)c(SCC3COC3)nc(N3CC(F)C3)c2C#N)cc1` [Compound 267], the pEC50 is 7.11 in assay [1] and below 5.00 on human A2B.

As for `N#Cc1c(SCc2cccnc2)nc(N2CC(O)C2)c(C#N)c1-c1ccc(OC2COC2)cc1` [Compound 268], the pEC50 was 8.94 in assay [1] and 7.25 at human A2B.

As for `COCCOc1ccc(-c2c(C#N)c(SCC3COC3)nc(N3CC(F)(F)C3)c2C#N)cc1` [Compound 269], the pEC50 in assay [1] was 6.21; on human A2B, below 5.00.

For the compound `COCCOc1ccc(-c2c(C#N)c(SCC3COC3)nc(N3CC(O)C3)c2C#N)cc1` [Compound 270], the pEC50 in assay [1] is 6.69; on human A2B, below 5.00.

On to `N#Cc1c(SCc2cccnc2)nc(N2CC(F)C2)c(C#N)c1-c1ccc(OC2COC2)cc1` [Compound 271], for which the pEC50 was 7.52 in assay [1] and 6.94 at human A2B.

As for `N#Cc1c(SCc2cccnc2)nc(N2CC(F)(F)C2)c(C#N)c1-c1ccc(OC2COC2)cc1` [Compound 272], the pEC50 in assay [1] was 7.66; at human A2B it was 6.51.

In the case of `N#Cc1c(SCC2COC2)nc(N2CC(F)(F)C2)c(C#N)c1-c1ccc(OCCO)cc1` [Compound 273], the figures for the pEC50 (in assay [1]; on human A2B) were 6.53 and below 5.00, respectively.

With `N#Cc1c(SCC2COC2)nc(N2CC(O)C2)c(C#N)c1-c1ccc(OCCO)cc1` [Compound 274], the pEC50 in assay [1] was 7.12; on human A2B it was below 5.00.

Regarding `N#Cc1c(SCC2COC2)nc(N2CC(F)C2)c(C#N)c1-c1ccc(OCCO)cc1` [Compound 275], the pEC50 was 7.25 in assay [1] and below 5.00 on human A2B.

Turning to `COCCOc1ccc(-c2c(C#N)c(SCc3cccnc3)nc(N3CC(F)(F)C3)c2C#N)cc1` [Compound 276], the pEC50 in assay [1] was 7.01; at human A2B, below 5.00.

For `COCCOc1ccc(-c2c(C#N)c(SCc3cccnc3)nc(N3CC(F)C3)c2C#N)cc1` [Compound 277], the pEC50 in assay [1] was 7.62; on human A2B it was below 5.00.

On to `COCCOc1ccc(-c2c(C#N)c(SCc3cccnc3)nc(N3CC(O)C3)c2C#N)cc1` [Compound 278], for which the negative-log EC50 (pEC50) in assay [1] is 7.86; on human A2B, below 5.00.

`COc1nc(SCC2COC2)c(C#N)c(-c2ccc(OCCO)cc2)c1C#N` [Compound 281]: the pEC50 in assay [1] is 6.08; on human A2B, below 5.00.

As to `COc1nc(SCc2cccnc2)c(C#N)c(-c2ccc(OCCO)cc2)c1C#N` [Compound 282], the figures for the pEC50 (in assay [1]; at human A2B) were 7.21 and 7.70, respectively.

`COCCOc1ccc(-c2c(C#N)c(OC)nc(SCc3cccnc3)c2C#N)cc1` [Compound 283]: the pEC50 (in assay [1]; on human A2B) was below 5.00 throughout.

As to `CNc1nc(SCc2cccnc2)c(C#N)c(-c2ccc(OCCOC)cc2)c1C#N` [Compound 284], the pEC50 (in assay [1]; on human A2B) was below 5.00 each time.

For the compound `CC(Sc1nc(N)c(C#N)c(-c2ccc(OC3COC3)cc2)c1C#N)C1COC1` (stereo not drawn) [Compound 285], the pEC50 in assay [1] is 6.02; at human A2B, below 5.00.

As for `COCCOc1ccc(-c2c(C#N)c(SCc3cccnc3)nc(N(C)C)c2C#N)cc1` [Compound 286], the pEC50 (in assay [1]; at human A2B) was below 5.00 throughout.

Take `N#Cc1c(OCC2COC2)nc(N2CCC2)c(C#N)c1-c1ccc(OC2COC2)cc1` [Compound 287, 2-(azetidin-1-yl)-6-(oxetan-3-ylmethoxy)-4-(4-(oxetan-3-yloxy)phenyl)pyridine-3,5-dicarbonitrile]: the pEC50 in assay [1] was 6.09; on human A2B it was below 5.00.

With `CNc1nc(OCC2COC2)c(C#N)c(-c2ccc(OC3COC3)cc2)c1C#N` [Compound 288], the pEC50 was 6.51 in assay [1] and below 5.00 at human A2B.

`N#Cc1c(N)nc(SCC2COC2)c(C#N)c1-c1ccc(OC(F)(F)COC(F)F)cc1` [Compound 289, 2-Amino-4-(4-(2-(difluoromethoxy)-1,1-difluoroethoxy)phenyl)-6-((oxetan-3-ylmethyl)thio)pyridine-3,5-dicarbonitrile]: the pEC50 (in assay [1]; at human A2B) was below 5.00 throughout.

Turning to `N#Cc1c(N)nc(OC[C@H]2CCOC2)c(C#N)c1-c1ccc(OC2COC2)cc1` [Compound 290], the figures for the pEC50 (in assay [1]; at human A2B) were 6.58 and below 5.00, respectively.

`N#Cc1c(N)nc(SCC2OCCCO2)c(C#N)c1-c1ccc(OC2COC2)cc1` [Compound 291]: the pEC50 is 6.68 in assay [1] and 5.00 on human A2B.

In the case of `N#Cc1c(SCC2COC2)nc(N2CCCC2)c(C#N)c1-c1ccc(OC2COC2)cc1` [Compound 292], the pEC50 in assay [1] is 7.03; on human A2B, below 5.00.

For `N#Cc1c(SCC2COC2)nc(N2CCC2)c(C#N)c1-c1ccc(OC2COC2)cc1` [Compound 293], the pEC50 in assay [1] is 7.14; on human A2B, below 5.00.
